# “And” between values parts separate entries of the source, which are not always exact repeats. Equal values may be shown once.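 Cells were grown in 96-well plates and exposed to each compound for 48 hours at five concentrations; endpoints were interpolated linearly between bracketing concentrations, or set to the highest concentration if not reached. At the GI50, growth is halved. The concentration for full growth arrest is given as TGI.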
# Experiments:
# Experiment in all cases: NCI tumour cell line growth inhibition, 48 h
# 786-0 renal = system: 786-0 renal
# EKVX NSCLC = system: EKVX NSCLC
# HCT-116 colon = system: HCT-116 colon
# A549 NSCLC = system: A549 NSCLC
# UACC-62 melanoma = system: UACC-62 melanoma
# K-562 leukemia = system: K-562 leukemia
# SW-620 colon = system: SW-620 colon
# T-47D breast = system: T-47D breast
# SNB-19 CNS = system: SNB-19 CNS
# CCRF-CEM leukemia = system: CCRF-CEM leukemia
Compound,GI50 (786-0 renal),TGI (786-0 renal),GI50 (EKVX NSCLC),TGI (EKVX NSCLC),GI50 (HCT-116 colon),TGI (HCT-116 colon),GI50 (A549 NSCLC),TGI (A549 NSCLC),GI50 (UACC-62 melanoma),TGI (UACC-62 melanoma),GI50 (K-562 leukemia),TGI (K-562 leukemia),GI50 (SW-620 colon),TGI (SW-620 colon),GI50 (T-47D breast),TGI (T-47D breast),GI50 (SNB-19 CNS),TGI (SNB-19 CNS),GI50 (CCRF-CEM leukemia),TGI (CCRF-CEM leukemia)
O=C(NCCN1CCOCC1)OCc1nc2nc(Cl)nc(N3CCOCC3)c2[nH]1,23.7 µM,> 100 µM,> 100 µM,> 100 µM,2.41 µM,> 100 µM,9.33 µM,> 100 µM,2.98 µM,> 100 µM,2.43 µM,> 100 µM,2.68 µM,> 100 µM,> 100 µM,> 100 µM,4.18 µM,> 100 µM,2.9 µM,> 100 µM
COc1ccc2c(c1)/C(=C\c1ccncc1)C(=O)N2,12.5 µM,29.3 µM,13.9 µM,33 µM,3.72 µM,17.8 µM,17.3 µM,46.4 µM,4.46 µM,17.2 µM,3.41 µM,9.56 µM,10.4 µM,43.8 µM,22.3 µM,> 100 µM,19.4 µM,61.1 µM,3.06 µM,> 100 µM
COc1ccc2c(c1)nc(NNC(=O)c1cnccn1)c1cccn12,0.432 µM,2.18 µM,0.161 µM,3.7 µM,0.143 µM,2.71 µM,0.298 µM,3.45 µM,0.268 µM,2.99 µM,0.393 µM,> 100 µM,0.403 µM,9.43 µM,0.348 µM,3.99 µM,0.381 µM,10.3 µM,0.0678 µM,> 44.1 µM
O=C1NC(N/N=C\C(O)C(O)C(O)C(O)CO)=N/C1=C/c1ccccc1 (configuration not stated),57.5 µM and 19.3 µM and > 100 µM,> 100 µM and 41.3 µM,> 100 µM and 19.9 µM,> 100 µM and 51 µM,52.2 µM and 16.4 µM and > 100 µM,> 100 µM and 33.8 µM,> 100 µM and 19 µM,> 100 µM and 45.7 µM,–,> 100 µM,67.6 µM and 33.8 µM and 28.8 µM,> 100 µM,54.2 µM and 23 µM and > 100 µM,> 100 µM and 83.4 µM,–,> 100 µM and 26.7 µM,58 µM and 15.3 µM and > 100 µM,> 100 µM and 33.3 µM,37.1 µM and 10.2 µM and 37.7 µM,> 100 µM and 97.7 µM and > 57.7 µM
COc1ccc2c(c1)[n+](=O)c(C(=O)c1cccs1)c(C(F)(F)F)n2[O-],17 µM,> 50 µM,1.48 µM,8.21 µM,12.3 µM,> 50 µM,7.99 µM,> 50 µM,5.76 µM,19.5 µM,2.56 µM,> 50 µM,8.43 µM,> 50 µM,5.26 µM,29.8 µM,10.7 µM,> 50 µM,11 µM,> 50 µM
O=S(=O)(NC1CCCCC1)c1ccc2c(c1)OCCOCCOCCOCCO2,–,> 100 µM,–,> 100 µM,–,> 100 µM,–,> 100 µM,–,> 100 µM,–,> 100 µM,–,> 100 µM,–,> 100 µM,–,> 100 µM,–,> 100 µM
COc1ccccc1/C=C1\COc2ccc(-c3ccccc3)cc2C1=O,4.31 µM,> 100 µM,5.59 µM,> 100 µM,2.98 µM,12 µM,2.61 µM,8.9 µM,4.39 µM,45.2 µM,4.54 µM,> 100 µM,2.39 µM,5.6 µM,2.83 µM,> 100 µM,4.2 µM,> 100 µM,2.08 µM,15.2 µM
C/C(=C\c1ccn(-c2ccccc2N)n1)[C@@H]1C[C@@H]2O[C@]2(C)CCC[C@H](C)[C@H](O)[C@@H](C)C(=O)C(C)(C)[C@@H](O)CC(=O)O1,0.0938 µM,> 42.6 µM,0.684 µM,> 50 µM,0.0191 µM,> 50 µM,0.0372 µM,> 50 µM,0.111 µM,> 50 µM,0.0268 µM,> 50 µM,0.0245 µM,> 50 µM,0.0692 µM,> 50 µM,0.184 µM,> 50 µM,0.0343 µM,> 50 µM
[2H]C([2H])([2H])NC(=O)c1nnc(NC(=O)C2CC2)cc1Nc1cccc(-c2ncn(C)n2)c1OC,28.4 µM,> 100 µM,81.4 µM,> 100 µM,9.79 µM,> 100 µM,50.1 µM,> 100 µM,91.6 µM,> 100 µM,31.2 µM,> 100 µM,41.6 µM,> 100 µM,32.4 µM,> 100 µM,> 100 µM,> 100 µM,19.8 µM,> 100 µM
O=C(O)C[C@H](O)C[C@H](O)/C=C/c1c(C2CC2)nc2ccccc2c1-c1ccc(F)cc1,21.6 µM and 2.86 µM,> 100 µM,23.1 µM and 5.16 µM,> 100 µM,5.8 µM and 1.25 µM,> 100 µM,> 100 µM and 18.7 µM,> 100 µM,2.3 µM and 0.45 µM,> 100 µM,6.4 µM and 7.73 µM,> 100 µM,18.6 µM and 4.92 µM,> 100 µM,–,> 100 µM,–,> 100 µM,58.4 µM and 25.8 µM,> 100 µM
Nc1ccn(C2CC(F)C(CO)O2)c(=O)n1 (configuration not stated),> 100 µM,> 100 µM,> 100 µM,> 100 µM,> 100 µM,> 100 µM,> 100 µM,> 100 µM,> 100 µM,> 100 µM,> 100 µM,> 100 µM,–,–,> 100 µM,> 100 µM,> 100 µM,> 100 µM,> 100 µM,> 100 µM
COc1ccc([C@H](CC(=O)O)N2CCN(CCCc3ccc4c(n3)NCCC4)C2=O)cn1,0.346 µM,> 100 µM,–,–,0.202 µM,> 34.7 µM,3.07 µM,> 30.3 µM,> 100 µM,> 100 µM,> 80.8 µM,> 100 µM,–,> 100 µM,0.382 µM,4.65 µM,0.426 µM,> 100 µM,> 100 µM,> 100 µM
CNC(=O)NCC1OC(n2cnc3c(NC(=O)Nc4ccccc4)ncnc32)C(O[Si](C)(C)C(C)(C)C)C1O[Si](C)(C)C(C)(C)C (configuration not stated),2.04 µM,3.71 µM,3.7 µM,30.6 µM,2.11 µM,4.31 µM,2.9 µM,12.8 µM,3.98 µM,23.6 µM,–,–,–,–,2.87 µM,10.3 µM,4.57 µM,> 100 µM,3.59 µM,> 100 µM

# Source: PubChem BioAssay (NCI)
